Some test systems named below: A498 renal; ACHN renal; COLO 205 colon; DU-145 prostate; HCT-116 colon; HL-60(TB) leukemia; MALME-3M melanoma; RXF 393 renal; SK-MEL-28 melanoma; TK-10 renal.
Common to all, as to experiment: inhibition of tumour cell growth, NCI panel, 48 h

This note sets out measurements from PubChem BioAssay (NCI).

The structures appear in SMILES notation. “And” between values parts separate entries of the source, which are not always exact repeats. Equal values may be shown once.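 Each compound was tested at five concentrations against cells in 96-well plates for 48 hours. The concentration for 50% growth inhibition is given as GI50. The concentration for full growth arrest is given as TGI.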

In the case of `C[C@H](Nc1cc(Cl)nc2c1cnn2[C@@H]1O[C@H](COP(=O)(O)CP(=O)(O)O)[C@@H](O)[C@H]1O)c1ccccc1F`, the GI50 in the experiment on A498 renal was 32.3 µM; in the experiment with ACHN renal it was more than 100 µM; with COLO 205 colon it was more than 100 µM; in the experiment on DU-145 prostate, more than 100 µM; in the experiment on HCT-116 colon, more than 100 µM; in the experiment on HL-60(TB) leukemia, more than 100 µM. Besides, the GI50 in the experiment with MALME-3M melanoma, with RXF 393 renal, in the experiment with SK-MEL-28 melanoma and in the experiment with TK-10 renal was more than 100 µM each time. In addition, the TGI in the experiment on A498 renal, with ACHN renal, in the experiment with COLO 205 colon, in the experiment on DU-145 prostate, in the experiment on HCT-116 colon and in the experiment with HL-60(TB) leukemia was more than 100 µM in each case. Besides, the TGI with MALME-3M melanoma, in the experiment on RXF 393 renal, in the experiment on SK-MEL-28 melanoma and with TK-10 renal was more than 100 µM throughout.

Take `COC(=O)c1cc2c(s1)-c1nccc3c1c(nc1ccccc13)C2=O`: the GI50 in the experiment on A498 renal was more than 100 µM; with ACHN renal it was more than 100 µM; in the experiment on COLO 205 colon it was 50.2 µM; in the experiment with DU-145 prostate, more than 100 µM; in the experiment with HCT-116 colon, more than 100 µM; with HL-60(TB) leukemia, 12.3 µM. Besides, the GI50 was 16.4 µM in the experiment on MALME-3M melanoma, 29.8 µM in the experiment on RXF 393 renal, more than 100 µM in the experiment with SK-MEL-28 melanoma and more than 100 µM in the experiment on TK-10 renal. Further, the TGI with A498 renal, in the experiment on ACHN renal, with COLO 205 colon, with DU-145 prostate, in the experiment on HCT-116 colon and in the experiment with HL-60(TB) leukemia was more than 100 µM each time. The TGI is 59.5 µM in the experiment with MALME-3M melanoma, more than 100 µM with RXF 393 renal, more than 100 µM with SK-MEL-28 melanoma and more than 100 µM in the experiment with TK-10 renal.

Turning to `CC1CCN(C(=O)OCc2nc3nc(Cl)nc(N4CCOCC4)c3[nH]2)CC1`, the GI50 in the experiment with A498 renal was 1.65 µM; with ACHN renal, 0.583 µM; with COLO 205 colon, 1.75 µM; in the experiment on DU-145 prostate it was 1.14 µM; with HCT-116 colon it was 0.209 µM; in the experiment with HL-60(TB) leukemia, 0.423 µM. For the same compound, the GI50 with MALME-3M melanoma is 1.5 µM; in the experiment with RXF 393 renal it was 0.554 µM; with SK-MEL-28 melanoma, 1.56 µM; in the experiment on TK-10 renal, 1.82 µM. Moreover, the TGI was found to be 4.05 µM in the experiment with A498 renal; 1.88 µM in the experiment on ACHN renal; 4.99 µM in the experiment with COLO 205 colon; 2.35 µM in the experiment on DU-145 prostate; 1.16 µM in the experiment with HCT-116 colon; 3.78 µM with HL-60(TB) leukemia. In addition, the TGI in the experiment with MALME-3M melanoma is 2.86 µM; in the experiment with RXF 393 renal it was 2 µM; in the experiment with SK-MEL-28 melanoma it was 2.94 µM; in the experiment on TK-10 renal it was 3.44 µM.

Regarding `CCc1c(Cl)c(C)cc(O)c1Cl`, the TGI is 54.7 µM in the experiment on A498 renal; 60.6 µM in the experiment on ACHN renal; more than 100 µM in the experiment on COLO 205 colon; more than 100 µM in the experiment on DU-145 prostate; more than 100 µM in the experiment on HCT-116 colon; 40.8 µM in the experiment on HL-60(TB) leukemia. Also, the TGI in the experiment with MALME-3M melanoma, in the experiment on RXF 393 renal, in the experiment with SK-MEL-28 melanoma and with TK-10 renal was more than 100 µM each time.

With `COc1ccc(-c2cc(/C=C/C(=O)c3ccc(OC)c(OC)c3)[nH]n2)cc1`, the GI50 in the experiment with A498 renal is 1.42 µM; in the experiment on ACHN renal, 1.68 µM; in the experiment on COLO 205 colon, 1.76 µM; with DU-145 prostate, 1.4 µM; with HCT-116 colon, 1.01 µM; in the experiment on HL-60(TB) leukemia, 2.18 µM. Further, the GI50 was 1.62 µM with MALME-3M melanoma, 1.39 µM with RXF 393 renal, 1.65 µM with SK-MEL-28 melanoma and 2.11 µM in the experiment with TK-10 renal. Also, the TGI in the experiment with A498 renal was found to be 3.55 µM; in the experiment on ACHN renal, 3.83 µM; with COLO 205 colon, 3.3 µM; with DU-145 prostate it was 2.81 µM; in the experiment on HCT-116 colon, 2.48 µM; in the experiment with HL-60(TB) leukemia, 6.4 µM. Moreover, the TGI in the experiment on MALME-3M melanoma stood at 3.45 µM; in the experiment on RXF 393 renal, 2.94 µM; in the experiment on SK-MEL-28 melanoma it was 3.07 µM; with TK-10 renal, 4.31 µM.

On to `O=[N+]([O-])c1cccc2ccc(N/N=C/c3ccccc3O)nc12`, for which the GI50 is more than 100 µM in the experiment with A498 renal; more than 100 µM with ACHN renal; 1.91 µM in the experiment with COLO 205 colon; more than 23.8 µM in the experiment with DU-145 prostate; 2.19 µM in the experiment with HCT-116 colon; 1.74 µM with HL-60(TB) leukemia. Further, the GI50 was more than 100 µM in the experiment on MALME-3M melanoma, 65.8 µM with RXF 393 renal, more than 100 µM with SK-MEL-28 melanoma and more than 100 µM with TK-10 renal. Further, the TGI with A498 renal was more than 100 µM; in the experiment on ACHN renal it was more than 100 µM; with COLO 205 colon, more than 19.8 µM; in the experiment with DU-145 prostate, more than 100 µM; in the experiment with HCT-116 colon it was more than 100 µM; with HL-60(TB) leukemia, more than 100 µM. Moreover, the TGI in the experiment with MALME-3M melanoma, with RXF 393 renal, in the experiment with SK-MEL-28 melanoma and in the experiment with TK-10 renal was more than 100 µM in each case.

With `COc1ccc2c(c1)c[n+](C)c1c3cc(OC)c(OC)cc3ccc21`, the GI50 is 2.02 µM and 19.7 µM in the experiment on A498 renal; 2.42 µM and 9.86 µM in the experiment with ACHN renal; 3.1 µM and 8.21 µM in the experiment with DU-145 prostate; 1.08 µM and 2.48 µM in the experiment with HCT-116 colon; 0.467 µM and 1.85 µM with HL-60(TB) leukemia; 3.71 µM and 12.4 µM with MALME-3M melanoma. Moreover, the GI50 in the experiment with RXF 393 renal was 1.5 µM and 5.8 µM; with SK-MEL-28 melanoma, 1.7 µM and 13 µM; with TK-10 renal it was 2.13 µM and 11.2 µM. For the same compound, the TGI in the experiment with A498 renal is 6.85 µM and 57.7 µM; with ACHN renal it was 5.01 µM and 23.8 µM; in the experiment with COLO 205 colon, 3.5 µM and 2.99 µM; in the experiment with DU-145 prostate, 11.4 µM and 21.3 µM; in the experiment with HCT-116 colon, 2.32 µM and 10 µM; in the experiment on HL-60(TB) leukemia, 3.48 µM and 16.9 µM. In addition, the TGI was 14.9 µM and 26 µM in the experiment with MALME-3M melanoma; 2.98 µM and 13.6 µM with RXF 393 renal; 3.45 µM and 27.3 µM in the experiment with SK-MEL-28 melanoma; 5.37 µM and 24 µM in the experiment with TK-10 renal.

With `Cc1cc2cc3c(=O)[nH]c(=O)[nH]c3nc2cc1C`, the TGI with A498 renal, in the experiment on ACHN renal, in the experiment with COLO 205 colon, with DU-145 prostate, with HCT-116 colon and in the experiment with HL-60(TB) leukemia was more than 100 µM throughout. The TGI with MALME-3M melanoma, in the experiment with RXF 393 renal, in the experiment with SK-MEL-28 melanoma and in the experiment with TK-10 renal was more than 100 µM in each case.

As for `COC12C(COC(N)=O)C3=C(C(=O)C(C)=C(N)C3=O)N1CC1C2N1C` (centres undefined), the TGI in the experiment with A498 renal stood at 21.2 µM; in the experiment with ACHN renal, 25.3 µM; in the experiment with COLO 205 colon it was 21.6 µM; in the experiment with DU-145 prostate, 15.3 µM; with HCT-116 colon, 32.1 µM; in the experiment on HL-60(TB) leukemia, 8.66 µM. For the same compound, the TGI stood at 18.7 µM in the experiment on MALME-3M melanoma, 28.7 µM in the experiment with RXF 393 renal, 57.4 µM in the experiment on SK-MEL-28 melanoma and 69.5 µM in the experiment on TK-10 renal.
